Measurements published in PMC8839448, “Novel Pyridothienopyrimidine Derivatives: Design, Synthesis and Biological Evaluation as Antimicrobial and Anticancer Agents” (Molecules, 2022).
≈ marks a conversion by molar mass, not a printed value.

Experiments:
[1] = tested on: Staphylococcus aureus 25923; assay: In vitro antibacterial activity, MIC by broth dilution; assay type: cell-based; settings: Gram +ve bacteria, read-out: MIC S. aureus
[2] = tested on: five bacterial strains; assay: Antibacterial MIC, range over the panel; assay type: cell-based
[3] = tested on: five bacterial and five fungal strains; assay: Antimicrobial MIC, range over bacterial and fungal strains; assay type: cell-based; settings: for MIC range of the reference drugs: range over strains; for MIC range, antibacterial and antifungal: range over bacterial and fungal strains
[4] = tested on: Bacillus subtilis 6633; assay: In vitro antibacterial activity, MIC by broth dilution; assay type: cell-based; settings: Gram +ve bacteria, read-out: MIC B. subtilis
[5] = tested on: Bacillus cereus 33018; assay: as above; assay type: cell-based; settings: Gram +ve bacteria, read-out: MIC B. cereus
[6] = tested on: Escherichia coli 8739; assay: as above; assay type: cell-based; settings: Gram −ve bacteria
[7] = tested on: Salmonella typhimurium 14028; assay: as above; assay type: cell-based; settings: Salmonella enterica, Gram −ve bacteria, read-out: MIC S. typhimurium
[8] = tested on: Aspergillus niger EM77 (KF774181); assay: In vitro antifungal activity, MIC by broth dilution; assay type: cell-based; settings: fungi
[9] = tested on: Candida albicans 10231; assay: as above; assay type: cell-based; settings: yeast, read-out: MIC C. albicans
[10] = tested on: all the tested yeasts and fungi strains; assay: Antifungal MIC, range over the panel; assay type: cell-based
[11] = tested on: Aspergillus flavus; assay: In vitro antifungal activity, MIC by broth dilution; assay type: cell-based; settings: fungi
[12] = tested on: Saccharomycese cerevisiae; assay: as above; assay type: cell-based; settings: Saccharomyces cerevisiae, yeast, read-out: MIC S. cerevisiae
[13] = tested on: Candida tropicals 750; assay: as above; assay type: cell-based; settings: yeast, read-out: MIC C. tropicals
[14] = Cytotoxicity against normal cells, MTT assay; settings: human, WISH normal cells
Source text: The cytotoxicity was estimated as IC50 in μM for the tested compounds and the reference drug doxorubicin, and are listed in Table 3.

[15] = molecular target: EGFR kinase (Homo sapiens, UniProt P00533); assay: In vitro EGFR kinase inhibitory assay (Kinase-Glo MAX kit); settings: EGFR IC50, EGFR kinase assay kit, triplicate, ± SD
Procedure: The assay kit is designed to measure EGFR Kinase activity for screening applications using Kinase-Glo® MAX as a detection reagent. The luminescence was measured using a microplate reader (Infinite M200 microplate reader, Tecan, Männedorf, Switzerland) [54]. All assays were performed in triplicate and the relative inhibition (%) of inhibitors was then calculated via comparison with the control with no inhibitor.
In vitro EGFR kinase assay
The assay Kit is designed to measure EGFR Kinase
activity for screening applications using Kinase-Glo® MAX as a detection reagent
using Kinase-Glo® MAX as a detection reagent. Thaw 5x Kinase Buffer 1: ATP and
PTK substrate Poly (Glu:Tyr 4:1) (10 mg/ml) kinase was provided. Then the master
mixture was prepared: N wells x (6 μl 5x Kinase Buffer 1 + 1 µl ATP (500 µM) + 1
µl PTK substrate Poly (Glu:Tyr 4:1) (10 mg/ml)+ 17 μl water) and 25 μl of the
mixture was added to every well. The tested compounds were dissolved in DMSO,
well labeled as “Positive Control", 5 μl of the same solution of the reference drug
erlotinib and “Blank”, 5 μl of the same solution without inhibitor (Inhibitor buffer).
ml of 1x Kinase Buffer 1) was prepared by mixing 600 µl of 5x Kinase Buffer 1 with
The reaction initiated by adding 20 µl of diluted EGFR enzyme to the wells designated “Positive Control” and "Test Inhibitor Control". Incubate at 30°C for 40
minutes. Thaw Kinase-G lo Max reagent. After the 40 minute reaction, 50 µl of
Kinase-Glo Max reagent was added to each well. The plate was covered with
aluminum foil and incubate at room temperature for 15 minutes. Then the
luminescence was measured using the microplate reader (Infinite M200 microplate
reader, Tecan, Männedorf, Switzerland). All assays were performed in triplicate. The
relative inhibition (%) of inhibitors were then calculated compared to the control with
no inhibitor. Then the IC50 values and their standard deviation (SD) for the tested
compounds and the reference drug were determined in (nM).

[16] = tested on: hepatocellular carcinoma (HepG2) cells; assay: Cytotoxicity, MTT assay; assay type: cell-based; settings: Homo sapiens, read-out: Cytotoxic activity IC50 HepG2
[17] = tested on: breast cancer (MCF-7) cells; assay: Cytotoxicity, MTT assay; assay type: cell-based, human; settings: Homo sapiens, MCF7, MCF7 cells, read-out: Cytotoxic activity IC50 MCF7
[18] = tested on: HepG2 and MCF-7 cancer cell lines; assay: Cytotoxicity, MTT assay, range over both cancer cell lines; assay type: cell-based, human; settings: for IC50: Homo sapiens, range over HepG2 and MCF-7, read-out: IC50 range, cytotoxic activity against both cell lines
[19] = tested on: E. coli; settings: Figure 1, reported agents; ref [21],[22],[33],[34]; cited from earlier work
[20] = tested on: HepG2 and MCF-7; settings: Figure 1, reported agents; ref [21],[22],[33],[34]; read-out: IC50 range HepG2 and MCF-7; cited from earlier work
[21] = tested on: S. aureus; settings: Figure 1, reported agents; ref [21],[22],[33],[34]; cited from earlier work
[22] = tested on: B. cereus; settings: Figure 1, reported agents; ref [21],[22],[33],[34]; cited from earlier work
[23] = tested on: S. typhimurium; settings: Figure 1, reported agents; ref [21],[22],[33],[34]; cited from earlier work

EGFR kinase, sequence (P00533 25-1210): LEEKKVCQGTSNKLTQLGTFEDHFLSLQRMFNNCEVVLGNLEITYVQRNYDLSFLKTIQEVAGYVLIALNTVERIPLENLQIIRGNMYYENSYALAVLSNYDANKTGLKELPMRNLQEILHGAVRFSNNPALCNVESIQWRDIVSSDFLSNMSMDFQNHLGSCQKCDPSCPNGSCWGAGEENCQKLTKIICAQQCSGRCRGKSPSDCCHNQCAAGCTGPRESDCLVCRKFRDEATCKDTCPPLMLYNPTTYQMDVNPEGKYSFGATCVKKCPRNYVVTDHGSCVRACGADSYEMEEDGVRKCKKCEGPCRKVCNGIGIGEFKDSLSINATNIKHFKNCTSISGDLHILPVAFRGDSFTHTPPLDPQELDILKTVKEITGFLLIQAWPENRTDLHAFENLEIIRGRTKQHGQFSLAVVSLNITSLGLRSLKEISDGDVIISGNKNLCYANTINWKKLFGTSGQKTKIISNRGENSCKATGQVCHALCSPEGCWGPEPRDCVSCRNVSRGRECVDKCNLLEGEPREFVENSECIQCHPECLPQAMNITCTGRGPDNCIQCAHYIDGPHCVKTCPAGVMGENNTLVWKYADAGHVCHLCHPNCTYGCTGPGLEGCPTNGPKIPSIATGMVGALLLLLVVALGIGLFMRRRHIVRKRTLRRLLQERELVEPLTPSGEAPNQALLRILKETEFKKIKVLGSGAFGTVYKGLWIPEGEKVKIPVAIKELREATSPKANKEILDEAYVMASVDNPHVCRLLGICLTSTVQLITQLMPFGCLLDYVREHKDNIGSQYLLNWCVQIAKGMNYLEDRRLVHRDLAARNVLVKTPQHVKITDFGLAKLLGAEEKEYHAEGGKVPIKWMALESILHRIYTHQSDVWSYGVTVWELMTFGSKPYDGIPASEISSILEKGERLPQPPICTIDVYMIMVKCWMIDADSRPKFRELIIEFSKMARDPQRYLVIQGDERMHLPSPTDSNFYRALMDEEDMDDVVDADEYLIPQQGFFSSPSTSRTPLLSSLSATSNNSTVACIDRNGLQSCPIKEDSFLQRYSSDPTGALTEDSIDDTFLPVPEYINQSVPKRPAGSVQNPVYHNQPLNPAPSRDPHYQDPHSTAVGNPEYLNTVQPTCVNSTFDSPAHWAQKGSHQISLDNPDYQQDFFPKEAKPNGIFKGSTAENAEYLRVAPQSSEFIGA

Row | Structure (SMILES) | MIC [1] | MIC [4] | MIC [5] | MIC [6] | MIC [7] | MIC [8] | MIC [9] | MIC range against the tested yeasts and fungi strains [10] | MIC [11] | MIC [12] | MIC [13] | IC50 [14] | melting point | IC50 [15] | IC50 [16] | IC50 [17] | IC50 [18] | further results
1 | CC1(C)S[C@@H]2[C@H](NC(=O)[C@H](N)c3ccc(O)cc3)C(=O)N2[C@H]1C(=O)O [Amoxicillin, amoxicillin trihydrate, reference compound] | 4 µg/mL | 8 µg/mL | 16 µg/mL | 8 µg/mL | 16 µg/mL | – | – | – | – | – | – | – | – | – | – | – | – | MIC range against the tested bacterial strains [2]: 4 to 16 µg/mL; MIC range of the reference drugs [3]: 4 to 16 µM
2 | Clc1ccccc1C(c1ccccc1)(c1ccccc1)n1ccnc1 [Clotrimazole, clotrimazole, reference compound] | – | – | – | – | – | 8 µg/mL (≈ 23.2 µM) | 16 µg/mL (≈ 46.4 µM) | 4 to 16 µg/mL | 8 µg/mL (≈ 23.2 µM) | 8 µg/mL (≈ 23.2 µM) | 8 µg/mL (≈ 23.2 µM) | – | – | – | – | – | – | MIC range of the reference drugs [3]: 4 to 16 µM
3 | Cc1cc(C)c2c(n1)sc1c(Cl)nc(Cl)nc12 [Compound 3a, 2,4-Dichloro-7,9-dimethylpyrido[3′,2′:4,5]thieno[3,2-d]pyrimidine] | 4 µg/mL (≈ 14.1 µM) | 4 µg/mL (≈ 14.1 µM) | 8 µg/mL (≈ 28.2 µM) | 8 µg/mL (≈ 28.2 µM) | 16 µg/mL (≈ 56.3 µM) | 8 µg/mL (≈ 28.2 µM) | 16 µg/mL (≈ 56.3 µM) | 4 to 16 µg/mL | 8 µg/mL (≈ 28.2 µM) | 8 µg/mL (≈ 28.2 µM) | 8 µg/mL (≈ 28.2 µM) | 417 ± 15.2 µM | 250 to 251 °C | 0.0173 ± 0.00024 µM | 2.31 ± 0.35 µM | 7.24 ± 0.64 µM | – | MIC range, antibacterial and antifungal [3]: 4 to 16 µg/mL
4 | Cc1ccc(-c2cc(-c3ccccc3)nc3sc4c(=O)[nH]c(CN5CCOCC5)nc4c23)cc1 [Compound 5a, 2-(Morpholinomethyl)-7-phenyl-9-(p-tolyl)pyrido[3′,2′:4,5]thieno[3,2-d]pyrimidin-4(3H)-one] | 8 µg/mL (≈ 17.1 µM) | 8 µg/mL (≈ 17.1 µM) | 16 µg/mL (≈ 34.1 µM) | 8 µg/mL (≈ 17.1 µM) | 16 µg/mL (≈ 34.1 µM) | 16 µg/mL (≈ 34.1 µM) | 16 µg/mL (≈ 34.1 µM) | 4 to 16 µg/mL | 8 µg/mL (≈ 17.1 µM) | 8 µg/mL (≈ 17.1 µM) | 8 µg/mL (≈ 17.1 µM) | 408 ± 15.9 µM | 245 °C | 0.00966 ± 8e-05 µM | 1.99 ± 0.09 µM | 2.79 ± 0.18 µM | 1.17 to 2.79 µM | MIC range against the tested bacterial strains [2]: 8 to 16 µg/mL; MIC range, antibacterial and antifungal [3]: 4 to 16 µg/mL
5 | Cc1cc(C)c2c3c(sc2n1)C(=O)NC1(CCCC1)N3 [Compound 6a, 7′,9′-Dimethyl-1′H-spiro[cyclopentane-1,2′-pyrido[3′,2′:4,5]thieno[3,2-d]pyrimidin]-4′(3′H)-one] | 32 µg/mL (≈ 111 µM) | 16 µg/mL (≈ 55.7 µM) | 8 µg/mL (≈ 27.8 µM) | 32 µg/mL (≈ 111 µM) | 16 µg/mL (≈ 55.7 µM) | 32 µg/mL (≈ 111 µM) | 64 µg/mL (≈ 223 µM) | – | 64 µg/mL (≈ 223 µM) | 32 µg/mL (≈ 111 µM) | 16 µg/mL (≈ 55.7 µM) | – | 245 to 246 °C | – | 52.2 ± 1.45 µM | 77.4 ± 3.62 µM | 12.1 to 77.4 µM | MIC range against the tested bacterial strains [2]: 8 to 32 µg/mL
6 | Cc1cc(C)c2c3c(sc2n1)C(=O)NC1(CCCCC1)N3 [Compound 6c, 7′,9′-Dimethyl-1′H-spiro[cyclohexane-1,2′-pyrido[3′,2′:4,5]thieno[3,2-d]pyrimidin]-4′(3′H)-one] | 4 µg/mL (≈ 13.3 µM) | 4 µg/mL (≈ 13.3 µM) | 8 µg/mL (≈ 26.5 µM) | 8 µg/mL (≈ 26.5 µM) | 16 µg/mL (≈ 53.1 µM) | 8 µg/mL (≈ 26.5 µM) | 16 µg/mL (≈ 53.1 µM) | 4 to 16 µg/mL | 4 µg/mL (≈ 13.3 µM) | 16 µg/mL (≈ 53.1 µM) | 4 µg/mL (≈ 13.3 µM) | – | 290 to 291 °C | – | 12.1 ± 0.33 µM | 22.2 ± 0.67 µM | 12.1 to 77.4 µM | –
7 | Cc1ccc(-c2cc(-c3ccccc3)nc3sc4c(c23)NC2(CCCC2)N=C4SCC(N)=O)cc1 [Compound 8b, 2-((7′-Phenyl-9′-(p-tolyl)-1′H-spiro[cyclopentane-1,2′-pyrido[3′,2′:4,5]thieno[3,2-d]pyrimidin]-4′-yl)sulfanyl)acetamide] | 4 µg/mL (≈ 8.02 µM) | 8 µg/mL (≈ 16 µM) | 16 µg/mL (≈ 32.1 µM) | 8 µg/mL (≈ 16 µM) | 16 µg/mL (≈ 32.1 µM) | 8 µg/mL (≈ 16 µM) | 8 µg/mL (≈ 16 µM) | 4 to 16 µg/mL | 8 µg/mL (≈ 16 µM) | 16 µg/mL (≈ 32.1 µM) | 16 µg/mL (≈ 32.1 µM) | 401 ± 17.3 µM | 148 to 149 °C | 0.03844 ± 0.00025 µM | 2.79 ± 0.08 µM | 13.5 ± 0.76 µM | – | –
8 | Cc1ccc(-c2cc(-c3ccccc3)nc3sc4c(c23)NC2(CCCC2)N=C4SCC2CO2)cc1 (stereo not drawn) [Compound 9b, 4′-((Oxiran-2-ylmethyl)sulfanyl)-7′-phenyl-9′-(p-tolyl)-1′H-spiro[cyclopentane-1,2′-pyrido[3′,2′:4,5]thieno[3,2-d]pyrimidine]] | 4 µg/mL (≈ 8.04 µM) | 4 µg/mL (≈ 8.04 µM) | 8 µg/mL (≈ 16.1 µM) | 4 µg/mL (≈ 8.04 µM) | 16 µg/mL (≈ 32.1 µM) | 8 µg/mL (≈ 16.1 µM) | 4 µg/mL (≈ 8.04 µM) | 4 to 16 µg/mL | 8 µg/mL (≈ 16.1 µM) | 8 µg/mL (≈ 16.1 µM) | 4 µg/mL (≈ 8.04 µM) | 418 ± 14.1 µM | 120 °C | 0.00727 ± 0.00011 µM | 1.17 ± 0.09 µM | 1.52 ± 0.08 µM | 1.17 to 2.79 µM | Fold higher growth inhibition than doxorubicin ([18]; HepG2 and MCF-7, relative to doxorubicin): 2–3 fold; MIC range, antibacterial and antifungal [3]: 4 to 16 µg/mL
9 | CCOC(=O)c1sc2nc(-c3ccc(OC)cc3)cc(-c3cccs3)c2c1N [III] | – | – | – | – | – | – | – | – | – | – | – | – | – | – | – | – | – | MIC E. coli [19]: 7.80 µg/mL (≈ 19 µM); IC50 [20]: 33.2 to 34.8 µM; MIC S. aureus [21]: 7.80 µg/mL (≈ 19 µM)
10 | COc1ccc(-c2cc(-c3ccco3)nc3sc(C(N)=O)c(N=C4CCCCC4)c23)cc1 [II] | – | – | – | – | – | – | – | – | – | – | – | – | – | – | – | – | – | MIC E. coli [19]: 15.60 µg/mL (≈ 35 µM); MIC B. cereus [22]: 15.60 µg/mL (≈ 35 µM); MIC S. aureus [21]: 15.60 µg/mL (≈ 35 µM)
11 | NC(=O)c1sc2nc(-c3ccco3)cc(-c3cccs3)c2c1N [I] | – | – | – | – | – | – | – | – | – | – | – | – | – | – | – | – | – | MIC E. coli [19]: 15.60 µg/mL (≈ 45.7 µM); MIC S. typhimurium [23]: 15.60 µg/mL (≈ 45.7 µM)
